Data reported in US20140120063A1, “NUTRITIONAL AND METABOLIC APPROACHES TO PREVENT EMERGENCE OF ENTERIC PATHOGENS” (The Board of Trustees of the Leland Stanford Junior …, priority 2012, published 2014).

Key:
[1] = system: C. difficile nanE; assay: C. difficile nanE gene expression (qRT-PCR) in feces of mice given exogenous free sialic acid; type: in vivo; conditions: sialic acid-fed Bt-ΔBT0455-associated mice, 1 day post-infection
Protocol: (§1) For sialic acid administration experiments, N-acetylneuraminic acid (Calbiochem or Santa Cruz Biotechnology) was administered in the water at a 1% concentration. Additionally, mice were orally gavaged 1 mg of sialic acid twice a day. The amount of sialic acid in the cecal contents were calculated to equal approximately 700 pmoles/mg of cecal contents, which mirrors the average concentration of free sialic acids we quantified post-antibiotic treatment (725 pmoles/mg).
qRT-PCR analysis was performed on RNA extracted from cecal or fecal contents by phenolchloroform extraction and bead beating. Superscript II (Invitrogen) was utilized to convert RNA to cDNA, and SYBR Green (ABgene) in a MX3000P thermocycler (Strategene) was utilized. Fold changes were normalized to in vitro growths in Minimal Medium containing 0.5% glucose (MM-G) for C. difficile and LB for S. typhimurium.

[2] = system: S. typhimurium nanA mutant; assay: Growth of S. typhimurium nanA mutant in minimal medium in the presence of sialic acid; type: cell-based; conditions: M9 minimal media, 0.25% sialic acid with glucose or glycerol
Protocol: FIG. 8. Requirement for S. typhimurium nan and fuc operons for in vitro growth on sialic acid and fucose. A) S. typhimurium SL1344 encodes the genes necessary to catabolize sialic acid and fucose. The nan and fuc operons are pictured in their genomic context. B) Growth of wild-type S. typhimurium and mutant S. typhimurium strains in M9 minimal medium containing 0.5% glucose (M9+glucose), 0.5% sialic acid (M9+sialic acid), or 0.5% fucose (M9+fucose). OD600 measurements were taken every 30 minutes. C, D) ΔNanA E. coli (Keio strain JW3194) and wild-type and ΔNanA S. typhimurium SL1344 strains were grown aerobically in M9 minimal media containing 0.5% total carbohydrate. Cells were grown in (C) 0.5% glucose or 0.25% glucose and 0.25% sialic acid, and (D) 0.5% glycerol (gro) or 0.25% glycerol and 0.25% sialic acid. Optical densities were measured at indicated times.
All strains of S. typhimurium were derived from wild-type strain SL1344, which is naturally streptomycin-resistant. […] Fecal densities (CFU) of S. typhimurium were quantified by duplicate sampling with 1 μl loops, and subsequent dilution and spot plating on plain LB agar for gnotobiotic experiments and LB agar with streptomycin for conventional experiments.

[3] = Amount of sialic acid in cecal contents after sialic acid administration; type: in vivo, mice; conditions: 1% in water plus 1 mg oral gavage twice a day
Protocol: as §1
All steps were carried out at 4° C. to minimize enzymatic hydrolysis. Approximately 200 mg of flash-frozen cecal contents were weighed out and resuspended in 400 μl dH2O, Samples were vortexed for 30 minutes at max speed and centrifuged for 15 minutes at 14,000×g in the tabletop centrifuge.
The supernatant was stored, and the pellet resuspended in an additional 400 μl dH2O. The tubes were vortexed individually until the pellet was dispersed, and then all samples were vortexed for 30 minutes, centrifuged, and supernatants were pooled. This process was repeated once more for a total volume of approximately 1 ml. […] The resulting product was analyzed by reverse-phase HPLC using a C18 column (Dionex) at a flow rate of 0.9 ml/min, using a gradient of 5% to 11% acetonitrile in 7% methanol. […] The DMB-derivatized sialic acids were identified and quantified by comparing elution times and peak areas to known standards.

[4] = system: C. difficile; assay: C. difficile density in feces of gnotobiotic mice given exogenous free sialic acid; type: in vivo
Protocol: (BioTek, Winooski, Vt.) every 30 minutes, at 37° C. anaerobically (6% H2, 20% CO2, 74% N2). Fecal densities (CFU) of C. difficile were quantified by duplicate sampling with 1 μl loops and subsequent dilution and spot plating on blood-BHI supplemented with erythromycin.
Germ-free Swiss-Webster mice were maintained in gnotobiotic isolators and fed an autoclaved standard diet (Purina LabDiet 5K67) or a polysaccharide-deficient diet (Sonnenburg, E. D., et al. Cell, 2010. 141(7): p. 1241-52), in accordance with A-PLAC, the Stanford IACUC. For all experiments involving C. difficile colonization of germ-free mice, the diet was switched to polysaccharide-deficient chow one day before inoculation with C. difficile.
as §1

CC(=O)N[C@H]1[C@H]([C@H](O)[C@H](O)CO)OC(O)(C(=O)O)C[C@@H]1O (some centres unmarked) [sialic acid, N-acetylneuraminic acid]
C. difficile nanE expression, fold higher over PBS-treated controls [1]: 58 fold
toxicity of sialic acid to the nanA mutant [2]: did not pose a toxicity issue
amount of sialic acid in the cecal contents [3]: approximately 700 pmoles/mg of cecal contents
C. difficile density in the lumen of the gut ([4]; GF mice infected with C. difficile, free sialic acid administration vs PBS, 1 day post-inoculation): higher densities
C. difficile density ([4]; feces, 1 day post-infection, Bt-ΔBT0455 monoassociated mice fed free sialic acid (1% in water plus 1 mg gavage twice a day), unsupplemented controls 6.8×10^7): 4.8×10^8 CFU/ml
